In patent publication US12258611B2, “Device for detecting tomato pathogenic fungus and detection method using the same” (Panasonic Intellectual Property Management Co., Ltd., priority 2018, dated 2025):

Key:
Assay in all cases: hyphae penetrating the artificial cell wall, fludioxonil in culture solution
Format in all cases: cell-based
Botrytis cinerea = conditions: 25° C., 72 hours
Description: Botrytis cinerea, which is one of tomato pathogens and is a pathogenic fungus that causes tomato gray mold, was inoculated onto a potato dextrose agar medium (Difco™ Potato Dextrose Agar). Subsequently, the medium was left static at a temperature of 25° C. for a week. The Botrytis cinerea was given by Associate Professor Shimizu, Faculty of Applied Biological Sciences, Gifu University. Subsequently, the potato dextrose agar medium having cultured Botrytis cinerea with sufficient hyphal growth was left under irradiation with black light for four days or longer, and subsequently left in a room-temperature environment for two weeks or longer, to promote sporulation. To the resultant potato dextrose agar medium having cultured Botrytis cinerea, several milliliters of sterile pure water was dropped, and the surface of the hyphae was rubbed with, for example, a platinum loop or a brush, to obtain a disintegrated hypha-spore mixed suspension.
(§1) The above-described container having, at the bottom surface, the artificial cell wall including the polyethylene terephthalate film (substrate) having, on its back surface, the cellulose membrane was placed on a culture medium container (culture-solution storage), to provide a device for detecting a tomato pathogenic fungus. The culture medium container was a 24-well flat-bottom culture plate (Corning Incorporated, trade name: 24 Well Cell Culture Cluster Flat Bottom). […]
(§2) Subsequently, sterile purified water was added such that the total volume with such a disintegrated hypha-spore mixed suspension became 200 μL. The tomato-pathogenic-fungus selection method device in which the seven species of fungi were added was left to stand at a temperature of 25° C. for 72 hours, and the number of hyphae penetrating the artificial cell wall and observed at the back surface was visually counted using an optical microscope. […]

[1] = system: Pseudocercospora fuligena; conditions: 25° C., 72 hours
Description: Pseudocercospora fuligena, which is one of tomato pathogens and is a pathogenic fungus that causes tomato Cercospora leaf mold, was inoculated onto a potato dextrose agar medium. Subsequently, the medium was left static at a temperature of 28° C. for a week. Pseudocercospora fuligena was distributed by The Genetic Resources Center, The National Agriculture and Food Research Organization (MAFF No. 306728). Subsequently, hyphae of Pseudocercospora fuligena were transferred from the potato dextrose agar medium to a burdock root powder agar medium, further left static for one to two weeks at a temperature of 28° C.; after hyphae sufficiently grew again, the surface of the hyphae was subjected to a mechanical stress such as rubbing with, for example, a platinum loop or a brush; subsequently, the medium was left under irradiation with black light for four days or longer, subsequently left in a room-temperature environment for two weeks or longer, to promote sporulation again. To the resultant burdock root powder agar medium having cultured Pseudocercospora fuligena, several milliliters of sterile pure water was dropped, and the surface of the hyphae was rubbed with, for example, a platinum loop or a brush, to obtain a disintegrated hypha-spore mixed suspension.
(§3) The above-described container having, at the bottom surface, the artificial cell wall including the polyethylene terephthalate film (substrate) having, on its back surface, the cellulose membrane was placed on a culture medium container (culture-solution storage), to provide a device for detecting a tomato pathogenic fungus. […]
as §2

Passalora fulva = conditions: 25° C., 72 hours
Description: Passalora fulva, which is one of tomato pathogens and is a pathogenic fungus that causes tomato leaf mold, was inoculated onto a potato dextrose agar medium. Subsequently, the medium was left static at a temperature of 23° C. for one to two weeks. Passalora fulva was distributed by The Genetic Resources Center, The National Agriculture and Food Research Organization (MAFF No. 726744). Subsequently, to the potato dextrose agar medium having cultured Passalora fulva with sufficient hyphal growth, several milliliters of sterile pure water was dropped, and the surface of the hyphae was rubbed with, for example, a platinum loop or a brush, to obtain a disintegrated hypha-spore mixed suspension.
as §1, with “Bottom). Between the culture medium container and the artificial-cell-wall-formed container, 600 μL of a liquid culture medium (culture solution) was charged so as to be in contact with the back surface of the artificial-cell-wall-formed container.” for “Bottom).”
as §2

Biscogniauxia maritima = conditions: Comparative Example 1, fludioxonil 133 mg/L, 25° C., 72 hours
From the text: (§4) Biscogniauxia maritima, Penicillium olsonii, Phoma multirostrata, and Trichoderma asperellum, which are not tomato pathogens but were present on tomato leaves, were sampled from the tomato leaves, isolated, and then inoculated onto a potato dextrose agar medium. The tomato plants serving as the isolation sources were sampled at a plurality of sites. The isolation method was as follows: into a clean resin container or resin bag, several tomato leaves sampled were placed together with a fungus collection solution composed of physiological saline containing 0.1% surfactant Tween 80 (SIGMA-ALDRICH), and stirred for 1 minute to transfer the fungi adhering to the leaves to the fungus collection solution; this fungus collection solution was diluted, and applied to a potato dextrose agar medium containing 100 mg/L of streptomycin sulfate (Wako) by the spread plate culture technique; subsequently, the medium was incubated at 25° C. for several days and, from the produced fungus colonies, the isolation was performed. We requested Tama Laboratory, (general incorporated association) Japan Food Research Laboratories to perform identification. The above-described Biscogniauxia maritima, Penicillium olsonii, Phoma multirostrata, and Trichoderma asperellum isolated and then inoculated onto the potato dextrose agar medium were left static at a temperature of 25° C. for a week. Subsequently, to the potato dextrose agar medium on which the four species of fungi were cultured with sufficient hyphal growth or sufficient sporulation, several milliliters of sterile pure water was dropped; the surface of the hyphae was rubbed with, for example, a platinum loop or a brush, to obtain a disintegrated hypha-spore mixed suspension.
as §3

Penicillium olsonii = conditions: Comparative Example 1, fludioxonil 133 mg/L, 25° C., 72 hours
From the text: as §4, §3

Phoma multirostrata = conditions: Comparative Example 1, fludioxonil 133 mg/L, 25° C., 72 hours
From the text: as §4, §3

Trichoderma asperellum = system: Trichoderma asperellum
From the text: as §4, §3

[2] = Comparative Example 1, fludioxonil 133 mg/L
[3] = Example 1, fludioxonil 0.5 mg/L
[4] = Example 2, fludioxonil 1.3 mg/L

With `N#Cc1c[nH]cc1-c1cccc2c1OC(F)(F)O2` [fludioxonil] the “hyphae penetrating the artificial cell wall” value (Botrytis cinerea; [2]) was “not observed”, the “hyphae penetrating the artificial cell wall” value (Botrytis cinerea; [3]) was “had hyphae penetrating the artificial cell wall” and the “hyphae penetrating the artificial cell wall” value (Botrytis cinerea; [4]) was “had hyphae penetrating the artificial cell wall”. For the same molecule, the “hyphae penetrating the artificial cell wall” value [1, 2] was “not observed”, the “hyphae penetrating the artificial cell wall” value [1, 3] was “had hyphae penetrating the artificial cell wall” and the “hyphae penetrating the artificial cell wall” value [1, 4] was “had hyphae penetrating the artificial cell wall”. The “hyphae penetrating the artificial cell wall” value (Passalora fulva; [2]) was “not observed”, the “hyphae penetrating the artificial cell wall” value (Passalora fulva; [3]) was “had hyphae penetrating the artificial cell wall” and the “hyphae penetrating the artificial cell wall” value (Passalora fulva; [4]) was “had hyphae penetrating the artificial cell wall”. For the same molecule, the “hyphae penetrating the artificial cell wall” value (Biscogniauxia maritima) was “not observed”, the “hyphae penetrating the artificial cell wall” value (Penicillium olsonii) was “not observed” and the “hyphae penetrating the artificial cell wall” value (Phoma multirostrata) was “not observed”. For the same molecule, the “hyphae penetrating the artificial cell wall” value (Trichoderma asperellum; Comparative Example 1, fludioxonil 133 mg/L, 25° C., 72 hours) was “not observed”, the “effect of excluding Trichoderma asperellum (number of hyphae penetrating the artificial cell walls)” value (Trichoderma asperellum; Comparative Example 2, fludioxonil 0.1 mg/L (1/1000 of the concentration that provides the agricultural chemical effect)) was “not observed” and the “growth of Trichoderma asperellum (number of hyphae penetrating the artificial cell walls)” value (Trichoderma asperellum; Comparative Example 2, fludioxonil 0.5 mg/L (1/250 of the concentration that provides the agricultural chemical effect)) was “inhibited”.
